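These data come from cells grown in 96-well plates and exposed to compound for 48 hours at five concentrations. At the GI50, growth is halved. Definition used: TGI = concentration required for complete inhibition of growth.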
Tests used:
Assay in all cases: NCI tumour cell line growth inhibition, 48 h
HCT-116 colon = tested on: HCT-116 colon
HCT-15 colon = tested on: HCT-15 colon
HOP-62 NSCLC = tested on: HOP-62 NSCLC
KM12 colon = tested on: KM12 colon
MDA-MB-231 breast = tested on: MDA-MB-231 breast
MOLT-4 leukemia = tested on: MOLT-4 leukemia
NCI-H522 lung = tested on: NCI-H522 lung
SK-MEL-5 melanoma = tested on: SK-MEL-5 melanoma
UACC-257 melanoma = tested on: UACC-257 melanoma
PC-3 prostate = tested on: PC-3 prostate

SMILES | GI50 (HCT-116 colon) [µM] | TGI (HCT-116 colon) [µM] | GI50 (HCT-15 colon) [µM] | TGI (HCT-15 colon) [µM] | GI50 (HOP-62 NSCLC) [µM] | TGI (HOP-62 NSCLC) [µM] | GI50 (KM12 colon) [µM] | TGI (KM12 colon) [µM] | GI50 (MDA-MB-231 breast) [µM] | TGI (MDA-MB-231 breast) [µM] | GI50 (MOLT-4 leukemia) [µM] | TGI (MOLT-4 leukemia) [µM] | GI50 (NCI-H522 lung) [µM] | TGI (NCI-H522 lung) [µM] | GI50 (SK-MEL-5 melanoma) [µM] | TGI (SK-MEL-5 melanoma) [µM] | GI50 (UACC-257 melanoma) [µM] | TGI (UACC-257 melanoma) [µM] | TGI (PC-3 prostate) [µM] | GI50 (PC-3 prostate) [µM]
Cn1c(I)c(C#C[Si](C)(C)C)c(=O)[nH]c1=O | 1.89 | 3.57 | 1.83 | 3.64 | 17.6 | 32.4 | 16.8 | 32.4 | 2.5 | 7.25 | 2.54 | 5.76 | 1.68 | 3.18 | 17.1 | 31 | 0.236 | 3.85 |  | 
COc1ccc2nc3ccccc3c(NCCCCN(CCCl)CCCl)c2c1 |  | 1.32 |  | > 43 |  | 24.8 |  | 3.48 |  | 16.7 |  | < 0.0369 |  |  |  | 3.37 |  | 3.34 | 7.56 | 
CC(=O)CC(=O)Nc1ccccc1C(F)(F)F |  | > 100 |  | > 100 |  | > 100 |  |  |  |  |  | > 100 |  | > 100 |  | > 100 |  |  |  | 
CN(C)N=Nc1ccc(S(N)(=O)=O)cc1 |  | > 100 |  | > 100 |  | > 100 |  | > 100 |  |  |  | > 100 |  | > 100 |  | > 100 |  | > 100 |  | 
COc1ccc(C(=O)C(C(=O)C(=O)NCCCNC(=O)C(=O)C(C(=O)c2ccc(OC)cc2)c2ccc(OC)cc2)c2ccc(OC)cc2)cc1 (stereo not given) |  | > 100 |  | > 100 |  | > 100 |  | > 100 |  |  |  | > 100 |  | > 100 |  |  |  | > 100 |  | 
O=C(N/C(=C\c1ccc(/C=C(\NC(=O)c2ccccc2)c2nc3c(O)nc(S)nc3[nH]2)cc1)c1nc2c(O)nc(S)nc2[nH]1)c1ccccc1 |  | > 100 |  | > 100 |  | > 100 |  | > 100 |  |  |  | > 100 |  | 41.1 |  | > 100 |  | > 100 |  | 
CCN(CC)C(=S)SS(C)(=O)=O |  | 43.1 |  | 26.2 |  | 40.2 |  | 31.7 |  |  |  | 42.8 |  | 0.137 |  | 49.4 |  | 52.3 |  | 
C(=N\Nc1ccc2ccccc2n1)/c1ccccn1 | 0.368 | 13.9 | 0.377 | > 100 | 0.431 | 6.98 | 0.458 | 16.2 | 0.695 | > 100 | 0.353 | > 21.8 | 0.319 | 11.8 | 0.694 | 3.67 |  |  | 73 | 0.825
Clc1ccc(-c2nc(NCc3ccco3)c3ccccc3n2)c(Cl)c1 | 16.3 | 45.8 | 13.1 | 42.7 | 15.8 | 34.7 | 10.2 | 27.3 |  |  | 9.16 | > 100 | 33.7 | > 100 | 13.9 | 30 |  |  | 55.7 | 13.9
O=C1C(Cl)=C(NCCCN(CCCNC2=C(Cl)C(=O)c3ccccc3C2=O)C2=C(Cl)C(=O)c3ccccc3C2=O)C(=O)c2ccccc21 |  |  | 1.66 | 3.78 | 3.8 | 42.3 | 3 | 12.8 | 1.93 |  |  |  | 1.97 | 4.98 | 1.18 | 2.43 |  |  | 16.7 | 2.15
CCC(c1ccccc1)c1cc(C(C)(C)C)cc(C(C)(C)C)c1O (stereo not given) |  | 25.5 |  | 30.5 |  | 29.7 |  | 32.3 |  | 31.9 |  |  |  | 27.2 |  | 32.7 |  | 28.5 | 31.6 | 
CC1=C2C=CC(=O)C[C@@]2(C)CCC1 |  | > 100 |  | > 100 |  | > 100 |  | > 100 |  |  |  | > 100 |  | > 100 |  | > 100 |  | > 100 |  | 
CC1=C(C(=O)Nc2ccc(Cl)c(Cl)c2)C(c2cccc(Cl)c2)NC(=S)N1 (stereo not given) | 7.75 | 21.5 | 15.1 | > 50 | 10.3 | 19.2 | 11.6 | 37.6 | 8.15 | 19.3 | 23.2 | > 50 |  |  | 2 | 4.32 |  |  | > 50 | 14.1
COc1ccc2c(c1)[n+]([O-])c(-c1ccccc1Cl)c(N)[n+]2[O-] |  | > 100 |  | > 100 |  | > 100 |  | > 100 |  |  |  | > 100 |  | 31.3 |  | > 100 |  | > 100 |  | 
CCN(CC)c1ccc(C2N3CCCCC3[C@@H]3c4[nH]c5ccccc5c4CCN23)cc1 (stereo not given in full) |  | 33.9 |  | > 100 |  | > 100 |  |  |  |  |  | > 100 |  |  |  | 31.1 |  | 77.8 |  | 
CC1(C)C(=O)/C=C\C(=O)C(C)(C)C(=O)/C=C\C(=O)C(C)(C)C2=CC=C(O2)C(C)(C)C(=O)/C=C\C1=O |  | 5 |  | 7.69 |  | 44.7 |  | 19.8 |  |  |  | 4.81 |  | 2.22 |  | 21.2 |  | 16.6 | 29.2 | 
COc1cc(O)c(C(=O)/C=C/c2ccc(OC)c(OCc3ccccc3)c2)c(OC)c1 |  | > 100 |  | > 100 |  | > 100 |  | > 100 |  |  |  | > 100 |  | > 100 |  | > 100 |  | > 100 |  | 
Cc1c(-c2ccccn2)ccc2ccccc12 |  | > 100 |  | > 100 |  | > 100 |  | > 100 |  | > 100 |  | > 100 |  |  |  | > 100 |  | > 100 | > 100 | 
CC(=O)[CH-]C(=O)c1ccccc1.CC(=O)[CH-]C(=O)c1ccccc1.CC(=O)[CH-]C(=O)c1ccccc1.[Ga+3] | 15.5 | 29.8 | 18.2 | > 100 | 29 | 60.9 | 16.8 | 31.1 |  |  | 9.64 | 30.4 | 12.1 | 25 | 23.4 | 65.6 | 16.2 | 31.5 |  | 
CCCCCCCCCCCCCS(=O)(=O)NCC(N)=O |  | > 100 |  | > 100 |  | > 100 |  | > 100 |  |  |  |  |  | > 100 |  | > 100 |  | > 100 |  | 
CCOC(=O)C1C(=O)CC(=O)C2CCCCC21 (stereo not given) |  | > 100 |  | > 100 |  | > 100 |  | > 100 |  |  |  | > 100 |  | > 100 |  | > 100 |  | > 100 |  | 

From PubChem BioAssay (NCI)
